# Laboratory results published in patent publication US20260002109A1, “SYSTEMS AND PROCESSES FOR SKIN TISSUE GROWTH AND ANALYSIS” (Outer Biosciences, Inc., priority 2023, published 2026).
# How the values were obtained:
# [1] = system: skin tissue; assay: Tissue longevity analysis: media conditions judged by histology (epidermis and dermis structure) and culture survival; format: cell-based, human
# Source text: Table 5 provides a plurality of media mixtures applied to skin samples to assess the effects of various testing conditions on the skin tissue.
# [2] = system: barrier function of the skin; assay: Transepidermal water loss (TEWL) measurement on skin biopsies in inserts; format: cell-based; conditions: biopsy edges sealed with Loctite super glue
# Source text: The purpose of this example is to incorporate sealed sensors into an insert. Sealing the biopsy edge using Loctite super glue, as shown in the photograph in FIG. 18A and the histology stain image in FIG. 18B, allowed the measurement of changes in barrier function with sensitivity, as well as preventing leakage of topically-applied substances into the dermis through the edge of the biopsy as well as allowing for the precise measurement of changes in the barrier function of the skin using clinical sensors.
# FIGS. 19A-19B illustrate measurements of transepidermal water loss (TEWL) in model skin that were either not sealed or sealed using Loctite super glue, respectively. TEWL measurements were taken using a Courage+Khazaka Multi Probe Adapter MPA 10. […] FIG. 20 show a comparison in TEWL measurements of the effects of a barrier enhancer (Niacinamide) and a barrier disrupter (SDS) on skin sealed with Loctite super glue over a six-day period.
# [3] = system: skin tissues; assay: Skin irritation: collagen deposition by histopathological scoring (Masson's Trichrome); format: cell-based; conditions: 2% for 24 hours; compared to the untreated group
# Description: (§1) The purpose of this example is to test and replicate dynamic changes in skin across various types of clinically relevant stimuli, including skin irritations, intradermal injection. cosmetic product treatment, and antioxidant defense. Approximations of skin irritation evaluated in this manner include topical chemical treatment 261, burn treatment 262, and UV treatment 263, as illustrated in FIGS. 26A-26C, respectively. Chemical irritation was approximated through application of 2% SDS for 24 hours, burns were approximated through 100° C, contact with a heated metal rod for 45 seconds, and UV irritation was approximated via UVA and UV application for 30 minutes. […] Skin tissues were evaluated and scored using the parameters in Table 9 as provided above. Include protocol, histological parameters, histology staining and scoring results, immune and inflammatory responses, antioxidant defense assessment, etc.
# A second selection of samples were cultured and subjected to irritating stimuli, whereby a chemical stimulus group was subjected to 2% SDS for 24 hours, a burn group was subjected to 100° C, contact for 90 seconds, and a UV irritation group was subjected to UV-B for 30 minutes. FIGS. 30A-30D illustrate insert images after staining with Masson's Trichrome for untreated, chemical-treated, burn-treated, and UV-treated skin tissues, respectively. […]
# [4] = system: normal skin tissue in an insert; assay: Skin irritation: histopathological scoring of H&E stained skin tissue; format: cell-based; conditions: 2% for 24 hours, topical; compared to the control group
# Description: as §1
# FIGS. 28A-28D provide H&E stained tissues for a first selection of untreated. chemical-treated, burn-treated, and UV-treated skin tissue samples, respectively. A pathological analysis of the extent of damage was undertaken and is shown in FIGS. 29A-29C to evaluate epidermal damage, eczematous epidermis, and epidermis thickness, respectively, after application of damage stimuli. […] UV irradiation caused epidermal thinning compared to the control group.
# [5] = system: skin tissues; assay: Skin irritation: lactate dehydrogenase (LDH) release; format: cell-based; conditions: 2% SDS for 24 hours; compared to untreated samples
# Description: A second selection of samples were cultured and subjected to irritating stimuli, whereby a chemical stimulus group was subjected to 2% SDS for 24 hours, a burn group was subjected to 100° C, contact for 90 seconds, and a UV irritation group was subjected to UV-B for 30 minutes. FIGS. 30A-30D illustrate insert images after staining with Masson's Trichrome for untreated, chemical-treated, burn-treated, and UV-treated skin tissues, respectively. FIG. 31A provides an analysis of collagen deposition using histopathological scoring to determine the effects of damage stimuli on each group. As a result of this analysis, both burn and UV irradiation groups were discovered to have reduced collagen deposition compared to the untreated group. […] FIG. 31B provides an analysis of lactate dehydrogenase (LDH) release, which is widely used as a marker for assessing cell death and toxicity. The analysis indicated a significant increase of LDH release from all treatment conditions compared to untreated samples.
Compound,beneficial effect on skin samples ([1]; 0.1 mM on the surface of skin samples),beneficial effect on skin samples ([1]; 0.5 mM and 1 mM in media),barrier function by TEWL [2],collagen deposition [3],eczematous epidermis [4],epidermal damage [4],thickness of epidermis [4],LDH release [5]
[Ca+2].[Cl-].[Cl-] [calcium chloride],neither testing condition was observed to have any beneficial effect,neither testing condition was observed to have any beneficial effect,,,,,,
CCCCCCCCCCCCOS(=O)(=O)[O-].[Na+] [SDS],,,reduction in the barrier function,No significant change in collagen deposition,moderate eczematous (atopic) epidermis,significant epidermal as evidenced by widespread dyskeratotic cells,pathological epidermal thickening (acanthosis),highest LDH release
